Literature values in PMC8217170, “Phase Ib dose-escalation study of the hypoxia-modifier Myo-inositol trispyrophosphate in patients with hepatopancreatobiliary tumors” (Nature Communications, 2021).
Like-named read-outs stand apart in the source and are kept apart here.

System: pancreatic carcinoma
Set-up: method as in ref 15 (supplementary references)
Details: ref 15 (supplementary references), cited from earlier work

O=P1(O)OC2C3OP(=O)(O)OP(=O)(O)OC3C3OP(=O)(O)OP(=O)(O)OC3C2OP(=O)(O)O1 (centres unmarked) [ITPP, Myo-inositol trispyrophosphate]
Survival (ITPP combined with half the usual dose of gemcitabine, all animals): > 200 days | Survival (ITPP treatment alone): 93 days
